This test deals with carrageenan induced paw edema. Put plainly: Anti-inflammatory activity: acute carrageenan induced paw edema in rats. It is filed as in vivo, Wister rats. Particulars: 10 mg kg^−1 indomethacin mol equivalent; for % inhibition of edema / Mean edema thickness: intraperitoneally; for Mean edema thickness: mean ± SE; for Potency (% inhibition of edema relative to that of indomethacin reference standard): at 4 h effect. How it is done:
The anti-inflammatory activity of the tested compounds was determined in vivo by the acute carrageenan induced paw edema standard method in rats. See, Naumov, et al., Bioorg. Med. Chem. Lett, 25: 2314-2320 (2015), Tiwari, et al., Org. Biomol. Chem, 12: 7238-7249 (2014), Girgis, et al., Eur. J. Med. Chem, 50: 1-8 (2012), Barsoum, et al., Eur. J. Med. Chem, 44: 2172-2177 (2009), Girgis, et al., Eur. J. Med. Chem, 44: 1972-1977 (2009), Girgis, et al., Eur. J. Med. Chem, 44: 1257-1264 (2009), Girgis, et al., Eur. J. Med. Chem, 44: 91-100 (2009), Girgis, et al., Eur. J. Med. Chem, 43: 2116-2121 (2008), Girgis, et al., Bioorg. Med. Chem, 14: 8527-8532 (2006), and Barsoum, et al., Bioorg. Med. Chem, 14: 3929-3937 (2006).
Adult Wister rats of either sex (pregnant female animals were excluded) weighing 120-150 g were divided into 18 groups of 6 animals each. […] The control group was given DMSO only. Carrageenan paw edema was induced by subcutaneous injection of freshly prepared 1% solution of carrageenan in saline (0.9%, 0.1 ml per rat) into subplantar tissue of the right hind paw of rats. The thickness of the paw was measured (in mm) after successive time intervals (1, 2,3,4 and 24 h) and compared with the initial hind paw thickness of each rat for determining the edema thickness. Data were collected, checked, revised and analyzed. Quantitative variables from normal distribution were expressed as means±SE “standard error”. The anti-inflammatory activity was expressed as percentage inhibition of edema thickness in treated animals in comparison with the control group according to eqn. (1)
Where, Vc and Vt are the mean of edema paw thickness for the control and tested compound treated animal groups, respectively.
On the technique in general: The carrageenan paw model is a standard test of acute inflammation.

Take `COc1cc(/C=C/C(=O)CC(=O)/C=C/c2ccc(OC(=O)CCN)c(OC)c2)ccc1OC(=O)CCN.Cl.Cl` [Compound 38]: the “Potency (% inhibition of edema relative to that of indomethacin reference standard)” value is 102. For the same compound, under “1 h”, the “% inhibition of edema” value is listed as 69% and the Mean edema thickness came out at 0.74 ± 0.09 mm. For the same compound, under “2 h”, the “% inhibition of edema” value is listed as 71% and the Mean edema thickness is 0.60 ± 0.06 mm. Besides, where the note is “3 h”, the “% inhibition of edema” value is recorded as 77% and the Mean edema thickness was determined as 0.42 ± 0.03 mm. For the setting “4 h”, the “% inhibition of edema” value stood at 89% and the Mean edema thickness was determined as 0.16 ± 0.04 mm. Under “24 h”, the “% inhibition of edema” value was 72% and the Mean edema thickness came out at 0.23 ± 0.01 mm.

For `COc1cc(/C=C/C(=O)CC(=O)/C=C/c2ccc(OC(=O)CNC(=O)OCC3c4ccccc4-c4ccccc43)c(OC)c2)ccc1OC(=O)CNC(=O)OCC1c2ccccc2-c2ccccc21` [Compound 13], the “Potency (% inhibition of edema relative to that of indomethacin reference standard)” value is reported as 91. In addition, under “1 h”, the “% inhibition of edema” value was 40% and the Mean edema thickness is 1.45 ± 0.15 mm. Further, for the setting “2 h”, the “% inhibition of edema” value is listed as 62% and the Mean edema thickness worked out at 0.78 ± 0.16 mm. In addition, where the note is “3 h”, the “% inhibition of edema” value is given as 74% and the Mean edema thickness turned out to be 0.47 ± 0.11 mm. Besides, under “4 h”, the “% inhibition of edema” value amounted to 79% and the Mean edema thickness was found to be 0.29 ± 0.04 mm. For the same compound, where the note is “24 h”, the “% inhibition of edema” value was 82% and the Mean edema thickness stood at 0.15 ± 0.02 mm.

With `COc1cc(/C=C/C(=O)CC(=O)/C=C/c2ccc(OC(=O)[C@H](Cc3ccccc3)NC(=O)OC(C)(C)C)c(OC)c2)ccc1OC(=O)[C@H](Cc1ccccc1)NC(=O)OC(C)(C)C` [Compound 23], the “Potency (% inhibition of edema relative to that of indomethacin reference standard)” value is reported as 68. Further, for the setting “1 h”, the “% inhibition of edema” value came to 39% and the Mean edema thickness is listed as 1.47 ± 0.16 mm. For the setting “2 h”, the “% inhibition of edema” value was determined as 44% and the Mean edema thickness was 1.16 ± 0.09 mm. For the same compound, under “3 h”, the “% inhibition of edema” value was determined as 53% and the Mean edema thickness stood at 0.85 ± 0.11 mm. Besides, for the setting “4 h”, the “% inhibition of edema” value amounted to 59% and the Mean edema thickness is 0.58 ± 0.03 mm. Also, where the note is “24 h”, the “% inhibition of edema” value worked out at 51% and the Mean edema thickness is given as 0.41 ± 0.02 mm.

Consider `COc1cc(/C=C/C(=O)CC(=O)/C=C/c2ccc(OC(=O)[C@@H](N)Cc3ccccc3)c(OC)c2)ccc1OC(=O)[C@@H](N)Cc1ccccc1.Cl.Cl` [Compound 34], for which the “Potency (% inhibition of edema relative to that of indomethacin reference standard)” value is 97. In addition, where the note is “1 h”, the “% inhibition of edema” value stood at 46% and the Mean edema thickness was 1.29 ± 0.14 mm. Besides, for the setting “2 h”, the “% inhibition of edema” value came out at 51% and the Mean edema thickness is on record as 1.01 ± 0.11 mm. In addition, under “3 h”, the “% inhibition of edema” value was 63% and the Mean edema thickness is recorded as 0.66 ± 0.08 mm. Besides, for the setting “4 h”, the “% inhibition of edema” value is given as 84% and the Mean edema thickness came to 0.22 ± 0.03 mm. Under “24 h”, the “% inhibition of edema” value came to 20% and the Mean edema thickness was 0.66 ± 0.04 mm.

For the compound `COc1cc(/C=C/C(=O)CC(=O)/C=C/c2ccc(OC(=O)[C@@H](N)C(C)C)c(OC)c2)ccc1OC(=O)[C@@H](N)C(C)C.Cl.Cl` [Compound 41], the “Potency (% inhibition of edema relative to that of indomethacin reference standard)” value is 53. Under “1 h”, the “% inhibition of edema” value was 60% and the Mean edema thickness is reported as 0.97 ± 0.10 mm. Moreover, for the setting “2 h”, the “% inhibition of edema” value is given as 50% and the Mean edema thickness was 1.04 ± 0.12 mm. Where the note is “3 h”, the “% inhibition of edema” value is given as 48% and the Mean edema thickness is given as 0.93 ± 0.11 mm. Also, under “4 h”, the “% inhibition of edema” value stood at 46% and the Mean edema thickness is listed as 0.75 ± 0.09 mm. Further, for the setting “24 h”, the “% inhibition of edema” value was found to be 14% and the Mean edema thickness came out at 0.71 ± 0.11 mm.

The values above are taken from patent publication US10660967B2, “Curcumin conjugates and methods of use thereof” (priority 2016, dated 2020).
